Experimental data taken from ChEMBL document CHEMBL1130912, “SAR of novel biarylmethylamine dopamine D4 receptor ligands” (Bioorg Med Chem Lett, 1998).
Several values for one entry are separate records, joined by “and”; a condition that tells them apart may be missing. Identical values can stand only once.

How the values were obtained:
D(3) dopamine receptor [1] = target: T1, D(3) dopamine receptor (Homo sapiens, UniProt P35462); experiment: biochemical
Description: Binding affinity to cloned human Dopamine receptor D3 expressed in CHO cells by [3H]spiperone displacement.

[2] = target: T2, 5-hydroxytryptamine receptor 1A (Rattus norvegicus, UniProt P19327); experiment: biochemical
T2 sequence (P19327 whole entry): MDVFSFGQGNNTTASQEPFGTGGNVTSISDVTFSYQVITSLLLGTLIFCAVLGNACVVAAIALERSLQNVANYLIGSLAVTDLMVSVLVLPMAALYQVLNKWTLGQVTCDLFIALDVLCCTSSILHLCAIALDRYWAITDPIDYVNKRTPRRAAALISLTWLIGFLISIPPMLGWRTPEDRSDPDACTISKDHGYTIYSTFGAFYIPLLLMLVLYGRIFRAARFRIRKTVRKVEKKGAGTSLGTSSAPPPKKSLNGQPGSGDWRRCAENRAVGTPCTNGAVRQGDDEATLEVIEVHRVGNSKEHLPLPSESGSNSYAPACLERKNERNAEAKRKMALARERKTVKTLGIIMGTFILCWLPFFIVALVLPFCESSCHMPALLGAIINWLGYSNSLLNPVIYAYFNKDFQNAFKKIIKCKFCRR
Description: Binding affinity to 5-HT1A receptor in rat hippocampus by [3H]8-OH-DPAT displacement.

D(2) dopamine receptor [3] = target: T3, D(2) dopamine receptor (Homo sapiens, UniProt P14416); experiment: biochemical
T3 sequence (P14416 whole entry): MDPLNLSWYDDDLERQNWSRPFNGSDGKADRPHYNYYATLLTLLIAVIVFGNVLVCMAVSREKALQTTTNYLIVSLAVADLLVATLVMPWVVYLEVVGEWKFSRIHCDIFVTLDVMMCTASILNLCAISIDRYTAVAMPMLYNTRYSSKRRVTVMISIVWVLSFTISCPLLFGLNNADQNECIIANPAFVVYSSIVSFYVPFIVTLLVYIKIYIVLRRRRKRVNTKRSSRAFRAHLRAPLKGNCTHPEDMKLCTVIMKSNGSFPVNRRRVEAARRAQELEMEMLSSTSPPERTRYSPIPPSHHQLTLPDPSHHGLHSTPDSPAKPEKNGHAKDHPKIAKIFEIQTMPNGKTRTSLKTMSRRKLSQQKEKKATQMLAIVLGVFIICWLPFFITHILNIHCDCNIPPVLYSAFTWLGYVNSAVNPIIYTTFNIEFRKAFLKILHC
Description: Binding affinity to cloned human Dopamine receptor D2 expressed in A9L cells by [3H]spiperone displacement.

D(4) dopamine receptor = target: T4, D(4) dopamine receptor (Homo sapiens, UniProt P21917); experiment: biochemical
T4 sequence (P21917 whole entry): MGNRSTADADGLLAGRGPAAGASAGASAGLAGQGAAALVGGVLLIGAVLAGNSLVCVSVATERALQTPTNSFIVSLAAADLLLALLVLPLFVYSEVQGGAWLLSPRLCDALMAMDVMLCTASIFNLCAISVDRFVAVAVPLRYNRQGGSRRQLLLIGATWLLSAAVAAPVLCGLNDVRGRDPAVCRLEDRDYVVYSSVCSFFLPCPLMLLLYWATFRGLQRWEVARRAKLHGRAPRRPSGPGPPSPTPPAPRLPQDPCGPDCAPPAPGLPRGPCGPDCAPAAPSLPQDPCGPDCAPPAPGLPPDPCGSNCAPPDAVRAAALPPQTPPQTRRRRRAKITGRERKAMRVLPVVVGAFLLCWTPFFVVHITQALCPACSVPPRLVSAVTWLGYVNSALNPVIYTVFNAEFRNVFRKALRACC
Description: Binding affinity to cloned human Dopamine receptor D4 expressed in CHO cells using [3H]spiperone

D(2) dopamine receptor [4] = target: T3, D(2) dopamine receptor; experiment: Binding affinity to cloned human Dopamine receptor D2 expressed in A9L cells using [3H]spiperone at 100 nM concentration; format: cell-based
D(3) dopamine receptor [5] = target: T1, D(3) dopamine receptor; experiment: Binding affinity to cloned human Dopamine receptor D3 expressed in CHO cells using [3H]spiperone at 100 nM concentration; format: cell-based
[6] = target: T5, D(4) dopamine receptor (Homo sapiens) (UniProt P21917); experiment: Binding affinity to cloned human dopamine receptor D4 expressed in CHO cells using [3H]spiperone at 100 nM concentration; format: cell-based
T5 sequence (whole entry): T4 sequence (P21917 whole entry)

T1 sequence (P35462 whole entry): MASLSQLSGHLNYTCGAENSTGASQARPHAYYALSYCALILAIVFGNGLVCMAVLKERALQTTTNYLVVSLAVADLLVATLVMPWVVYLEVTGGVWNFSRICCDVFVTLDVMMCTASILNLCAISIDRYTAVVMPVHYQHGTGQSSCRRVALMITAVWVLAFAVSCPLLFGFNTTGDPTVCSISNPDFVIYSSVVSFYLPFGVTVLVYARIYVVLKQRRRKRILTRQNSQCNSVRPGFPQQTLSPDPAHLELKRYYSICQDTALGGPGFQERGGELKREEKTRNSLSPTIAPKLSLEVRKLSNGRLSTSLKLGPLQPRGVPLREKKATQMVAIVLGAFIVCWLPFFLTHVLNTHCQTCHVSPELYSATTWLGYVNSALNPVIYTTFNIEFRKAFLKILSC

Row | Compound | IC50 (D(3) dopamine receptor [1]) [nM] | IC50 [2] [nM] | IC50 (D(2) dopamine receptor [3]) [nM] | IC50 (D(4) dopamine receptor) | inhibition (D(2) dopamine receptor [4]) [%] | inhibition (D(3) dopamine receptor [5]) [%] | inhibition [6] [%]
1 | Fc1ccccc1-c1cccc(CN2CCN(c3ncccn3)CC2)c1 | 320 | 900 | 250 | 8 nM | – | – | –
2 | c1cnc(N2CCN(Cc3ccc4c(c3)Cc3ccccc3-4)CC2)nc1 | – | > 100 | – | – | 89 | 91 | 87
3 | CC(C)Oc1cccnc1N(C)C1CCN(Cc2ccccc2)CC1 | 5500 | > 1000 | 620 | 5 nM and 8 nM | – | – | –
4 | c1cnc(N2CCN(CC3c4ccccc4-c4ccccc43)CC2)nc1 | – | > 100 | – | – | 100 | 95 | 99
5 | COc1ccccc1-c1cccc(CN2CCN(c3ncccn3)CC2)c1 | 710 | 300 | 360 | 16 nM | – | – | –
6 | Fc1cccc(-c2cccc(CN3CCN(c4ncccn4)CC3)c2)c1 | 200 | 300 | 81 | 4 nM and 9 nM | – | – | –
7 | Fc1ccc(-c2cncc(CN3CCN(c4ccccc4)CC3)c2)cc1 | 33 | 70 | 23 | 6 nM | – | – | –
8 | c1cnc(N2CCN(Cc3cccc(-c4ccsc4)c3)CC2)nc1 | 200 | 600 | 300 | 3 nM and 6 nM | – | – | –
9 | Fc1ccc(-c2cncc(CN3CCN(c4ccccc4F)CC3)c2)cc1 | 8 | 20 | 25 | 3 nM and 7 nM | – | – | –
10 | c1cnc(N2CCN(Cc3cccc4c3-c3ccccc3C4)CC2)nc1 | 4000 | > 100 | 2300 | 4800 nM | – | – | –
11 | Fc1ccc(-c2cncc(CN3CCN(c4ccc(F)cc4)CC3)c2)cc1 | 200 | 400 | 70 | 8 nM | – | – | –
12 | c1cnc(N2CCN(Cc3cccc4c3sc3ccccc34)CC2)nc1 | – | > 100 | – | – | 97 | 101 | 87
13 | Fc1ccc(-c2cncc(CN3CCN(c4ccccn4)CC3)c2)cc1 | 300 | 10 | 60 | 7 nM | – | – | –
14 | COc1ccc(-c2cccc(CN3CCN(c4ncccn4)CC3)c2)cc1 | 72 | 2000 | 50 | 57 nM | – | – | –
15 | Fc1ccc(-c2cncc(CN3CCN(c4ncccn4)CC3)c2)cc1 | 150 | 100 | 120 | 9 nM and 7 nM | – | – | –
16 | c1cnc(N2CCN(Cc3cccc4c3oc3ccccc34)CC2)nc1 | – | > 100 | – | 290 nM | 94 | 91 | –
17 | Fc1ccc(-c2cccc(CN3CCN(c4ncccn4)CC3)c2)cc1 | 59 | 700 | 49 | 2 nM and 7 nM | – | – | –
18 | c1cnc(N2CCN(Cc3cccc4c3Cc3ccccc3-4)CC2)nc1 | 5600 | > 10000 | 9800 | 20 nM | – | – | –
19 | COc1cccc(-c2cccc(CN3CCN(c4ncccn4)CC3)c2)c1 | 1100 | 700 | 490 | 17 nM | – | – | –
20 | Fc1ccc(-c2cncc(CN3CCN(c4cnccn4)CC3)c2)cc1 | 480 | 400 | 450 | 25 nM | – | – | –
